Assay [1] has as its target Proto-oncogene tyrosine-protein kinase receptor Ret (Homo sapiens, UniProt P07949). As to the kind of experiment: Selectivity interaction (Upstate Kinase Profiler service (Millipore)) EUB0000056c RET. The settings on record: at 1 µM.
For assay [2], the target named is Serine/threonine-protein kinase PAK 2 (Homo sapiens) (UniProt Q13177). Briefly: Selectivity interaction (Ambit KINOMEscan and KiNATiv profiling in Jurkat cells) EUB0000090b PAK2. To be noted: at 1 µM. Format: cell-based.
Assay [3] concerns the target T1, Dual specificity mitogen-activated protein kinase kinase 4 (Homo sapiens) (UniProt P45985).
T1 sequence (whole entry): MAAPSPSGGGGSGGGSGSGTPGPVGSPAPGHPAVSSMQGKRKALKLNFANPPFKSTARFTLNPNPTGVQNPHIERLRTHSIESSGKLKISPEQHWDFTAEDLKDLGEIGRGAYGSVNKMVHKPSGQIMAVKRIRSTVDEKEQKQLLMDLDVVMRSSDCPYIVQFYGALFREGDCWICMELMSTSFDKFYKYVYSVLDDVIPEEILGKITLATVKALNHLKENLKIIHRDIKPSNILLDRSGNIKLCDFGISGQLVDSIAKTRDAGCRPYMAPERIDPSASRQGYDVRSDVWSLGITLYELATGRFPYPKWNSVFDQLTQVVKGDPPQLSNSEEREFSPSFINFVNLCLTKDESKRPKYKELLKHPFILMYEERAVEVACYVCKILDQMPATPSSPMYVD
The settings on record: at 10 µM.

Assay [4] has as its target RAC-alpha serine/threonine-protein kinase (Homo sapiens, UniProt P31749). Briefly: Selectivity interaction (KinomeScan (DiscoverX)) EUB0001079a AKT1. The settings on record: at 1 µM.
Assay [5] has as its target Serine/threonine-protein kinase PRP4 homolog (Homo sapiens) (UniProt Q13523). As to the kind of experiment: Selectivity interaction (KinomeScan (DiscoverX)) EUB0000092b PRPF4B. To be noted: at 10 µM.
The subject of assay [6] is Tyrosine-protein kinase ABL1 (Homo sapiens), P00519 [E255K]. As to the kind of experiment: (§1) Selectivity interaction (KinomeScan (DiscoverX)) EUB0000655a ABL1. To be noted: at 10 µM.
For assay [7], the system named is Tyrosine-protein kinase ABL1 (Homo sapiens), P00519 [F317I]. The assay is described as §1. To be noted: at 10 µM.
Assay [8] has as its system Tyrosine-protein kinase ABL1 (Homo sapiens), P00519 [F317L]. Described as §1. To be noted: at 10 µM.
The test system of assay [9] is Tyrosine-protein kinase ABL1 (Homo sapiens), P00519 [H396P]. The assay is described as §1. To be noted: at 10 µM.
Assay [10] deals with Tyrosine-protein kinase ABL1 (Homo sapiens), P00519 [M351T]. The description is as §1. To be noted: at 10 µM.
The subject of assay [11] is Tyrosine-protein kinase ABL1 (Homo sapiens), P00519 [Q252H]. The assay is described as §1. The settings on record: at 10 µM.
Assay [12] relates to Tyrosine-protein kinase ABL1 (Homo sapiens), P00519 [T315I]. The assay is described as §1. The settings on record: at 10 µM.
In assay [13] the test system is Tyrosine-protein kinase ABL1 (Homo sapiens), P00519 [Y253F]. The assay is described as §1. The settings on record: at 10 µM.
In assay [14] the target is Tyrosine-protein kinase ABL1 (Homo sapiens, UniProt P00519). The assay is described as §1. The settings on record: at 10 µM.
In assay [15] the target is 5'-AMP-activated protein kinase catalytic subunit alpha-1 (Homo sapiens, UniProt Q13131). As to the kind of experiment: Selectivity interaction (KinomeScan (DiscoverX)) EUB0000045b PRKAA1.
Chain of 5'-AMP-activated protein kinase catalytic subunit alpha-1 (Q13131 whole entry, looked up, canonical isoform): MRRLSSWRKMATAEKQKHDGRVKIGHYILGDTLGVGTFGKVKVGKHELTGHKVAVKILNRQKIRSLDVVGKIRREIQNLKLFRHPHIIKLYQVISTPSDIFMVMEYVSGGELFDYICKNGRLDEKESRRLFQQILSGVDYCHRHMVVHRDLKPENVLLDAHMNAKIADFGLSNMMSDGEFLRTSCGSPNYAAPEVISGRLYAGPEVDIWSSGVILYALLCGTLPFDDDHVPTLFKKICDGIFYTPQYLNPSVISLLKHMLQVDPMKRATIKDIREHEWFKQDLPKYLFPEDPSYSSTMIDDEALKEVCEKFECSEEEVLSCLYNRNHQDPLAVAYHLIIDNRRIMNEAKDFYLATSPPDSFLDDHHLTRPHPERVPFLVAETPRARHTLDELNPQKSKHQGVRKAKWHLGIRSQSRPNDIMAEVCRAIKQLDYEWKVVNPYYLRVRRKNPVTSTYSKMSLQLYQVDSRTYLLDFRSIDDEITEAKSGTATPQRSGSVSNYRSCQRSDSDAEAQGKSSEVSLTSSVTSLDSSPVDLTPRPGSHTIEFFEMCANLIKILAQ
The target of assay [16] is Casein kinase I isoform delta (Homo sapiens, UniProt P48730). Briefly: Selectivity interaction (Kinase panel (Z-LYTE Assay)) EUB0001632a CSNK1D. To be noted: at 10 µM.
Chain of Casein kinase I isoform delta (P48730 whole entry, looked up, canonical isoform): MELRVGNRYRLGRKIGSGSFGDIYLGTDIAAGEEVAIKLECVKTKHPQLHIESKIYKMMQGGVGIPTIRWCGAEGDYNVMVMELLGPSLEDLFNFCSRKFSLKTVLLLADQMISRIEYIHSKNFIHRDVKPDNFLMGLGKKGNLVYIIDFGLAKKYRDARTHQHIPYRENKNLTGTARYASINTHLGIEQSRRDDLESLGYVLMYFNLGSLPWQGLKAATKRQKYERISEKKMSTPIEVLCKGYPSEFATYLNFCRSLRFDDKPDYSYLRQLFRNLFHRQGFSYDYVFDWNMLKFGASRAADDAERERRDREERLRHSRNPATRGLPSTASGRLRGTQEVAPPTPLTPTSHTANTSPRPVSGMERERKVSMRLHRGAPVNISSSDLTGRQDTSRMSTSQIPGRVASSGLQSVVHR
For assay [17], the target named is T2, Serine/threonine-protein kinase haspin (Homo sapiens) (UniProt Q8TF76).
T2 sequence (whole entry): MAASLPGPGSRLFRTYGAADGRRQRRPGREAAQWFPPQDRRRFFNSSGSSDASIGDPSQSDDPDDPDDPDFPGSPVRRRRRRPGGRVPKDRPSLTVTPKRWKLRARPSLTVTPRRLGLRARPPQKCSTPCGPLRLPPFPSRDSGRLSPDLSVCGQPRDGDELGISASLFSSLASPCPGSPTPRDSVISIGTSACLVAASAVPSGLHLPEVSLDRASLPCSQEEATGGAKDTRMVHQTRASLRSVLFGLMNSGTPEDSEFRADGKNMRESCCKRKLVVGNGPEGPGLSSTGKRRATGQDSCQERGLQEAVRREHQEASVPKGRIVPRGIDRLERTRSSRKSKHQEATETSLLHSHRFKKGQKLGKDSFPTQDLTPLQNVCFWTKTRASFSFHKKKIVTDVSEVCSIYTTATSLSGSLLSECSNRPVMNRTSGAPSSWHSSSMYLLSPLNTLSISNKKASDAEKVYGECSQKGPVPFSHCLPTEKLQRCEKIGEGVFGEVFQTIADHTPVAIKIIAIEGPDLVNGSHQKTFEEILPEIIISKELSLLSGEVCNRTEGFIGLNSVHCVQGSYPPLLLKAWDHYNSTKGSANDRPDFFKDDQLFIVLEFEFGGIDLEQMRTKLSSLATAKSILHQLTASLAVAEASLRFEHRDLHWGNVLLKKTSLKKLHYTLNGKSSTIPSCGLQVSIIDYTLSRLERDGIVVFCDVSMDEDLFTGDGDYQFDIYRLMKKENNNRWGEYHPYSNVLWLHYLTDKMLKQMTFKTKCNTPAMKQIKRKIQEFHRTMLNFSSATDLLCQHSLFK
Briefly: Selectivity interaction (KinomeScan (DiscoverX)) EUB0000607a GSG2. To be noted: at 10 µM.

The target in assay [18] is Serine/threonine-protein kinase 38-like (Homo sapiens) (UniProt Q9Y2H1). As to the kind of experiment: Selectivity interaction (ActivX KiNativ screen (ex vivo kinase selectivity in human PBMCs)) EUB0001619a STK38L. Format: cell-based. To be noted: PBMC, at 1 µM.
Chain of Serine/threonine-protein kinase 38-like (Homo sapiens) (Q9Y2H1 2-464 limits assumed): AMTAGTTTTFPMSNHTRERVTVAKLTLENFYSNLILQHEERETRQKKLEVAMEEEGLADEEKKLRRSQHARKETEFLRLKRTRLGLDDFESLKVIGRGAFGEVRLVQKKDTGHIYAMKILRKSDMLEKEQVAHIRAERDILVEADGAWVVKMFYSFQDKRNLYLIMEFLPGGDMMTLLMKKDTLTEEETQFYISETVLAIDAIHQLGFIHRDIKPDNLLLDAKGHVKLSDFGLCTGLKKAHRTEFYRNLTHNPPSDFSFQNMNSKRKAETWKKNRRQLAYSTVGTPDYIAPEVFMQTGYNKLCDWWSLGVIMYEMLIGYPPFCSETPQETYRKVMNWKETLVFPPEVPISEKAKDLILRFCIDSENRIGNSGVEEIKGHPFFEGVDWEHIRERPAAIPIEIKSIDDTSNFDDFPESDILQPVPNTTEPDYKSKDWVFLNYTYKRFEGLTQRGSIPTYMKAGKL
Assay [19] deals with Phosphatidylinositol 3-kinase catalytic subunit type 3 (Homo sapiens, UniProt Q8NEB9). As to the kind of experiment: Selectivity interaction (ActivX KiNativ screen (ex vivo kinase selectivity in human PBMCs)) EUB0001619a PIK3C3. Format: cell-based. To be noted: PBMC, at 1 µM.
Chain of Phosphatidylinositol 3-kinase catalytic subunit type 3 (Q8NEB9 whole entry): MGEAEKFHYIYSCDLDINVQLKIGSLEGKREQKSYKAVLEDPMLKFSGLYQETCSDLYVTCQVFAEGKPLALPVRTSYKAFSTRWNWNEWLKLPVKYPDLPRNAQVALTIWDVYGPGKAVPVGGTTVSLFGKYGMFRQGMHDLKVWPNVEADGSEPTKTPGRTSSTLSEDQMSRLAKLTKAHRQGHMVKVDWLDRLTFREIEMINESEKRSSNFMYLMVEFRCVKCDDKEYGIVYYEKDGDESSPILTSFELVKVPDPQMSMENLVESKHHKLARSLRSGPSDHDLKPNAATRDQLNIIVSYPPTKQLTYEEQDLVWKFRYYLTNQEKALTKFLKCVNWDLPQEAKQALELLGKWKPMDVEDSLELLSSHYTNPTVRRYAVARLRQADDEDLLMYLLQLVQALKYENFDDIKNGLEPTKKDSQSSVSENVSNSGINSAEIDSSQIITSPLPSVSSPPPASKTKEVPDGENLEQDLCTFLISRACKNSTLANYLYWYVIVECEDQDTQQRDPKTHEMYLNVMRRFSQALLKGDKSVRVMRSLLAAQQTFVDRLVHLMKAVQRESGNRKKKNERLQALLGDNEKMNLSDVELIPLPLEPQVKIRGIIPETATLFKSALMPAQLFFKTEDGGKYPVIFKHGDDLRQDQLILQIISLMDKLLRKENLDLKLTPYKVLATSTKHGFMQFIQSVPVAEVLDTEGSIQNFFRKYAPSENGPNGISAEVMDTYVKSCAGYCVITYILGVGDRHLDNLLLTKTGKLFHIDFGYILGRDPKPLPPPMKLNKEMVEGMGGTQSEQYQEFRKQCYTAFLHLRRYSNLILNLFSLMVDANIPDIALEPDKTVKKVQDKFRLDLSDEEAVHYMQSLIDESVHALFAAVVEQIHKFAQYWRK

Chain of RAC-alpha serine/threonine-protein kinase (P31749 whole entry): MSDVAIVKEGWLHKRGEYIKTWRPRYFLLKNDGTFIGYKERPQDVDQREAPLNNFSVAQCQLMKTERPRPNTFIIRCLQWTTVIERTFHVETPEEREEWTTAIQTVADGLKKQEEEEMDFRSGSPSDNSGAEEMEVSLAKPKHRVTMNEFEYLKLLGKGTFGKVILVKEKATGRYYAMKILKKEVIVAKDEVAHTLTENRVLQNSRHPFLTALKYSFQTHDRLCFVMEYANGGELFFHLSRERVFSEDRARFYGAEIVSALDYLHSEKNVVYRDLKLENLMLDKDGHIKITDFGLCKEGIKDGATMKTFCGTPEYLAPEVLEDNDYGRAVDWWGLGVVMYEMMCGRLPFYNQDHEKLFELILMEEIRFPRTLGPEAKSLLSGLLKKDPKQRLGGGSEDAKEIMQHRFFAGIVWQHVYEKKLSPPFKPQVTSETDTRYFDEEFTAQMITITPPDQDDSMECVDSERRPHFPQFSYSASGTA
Chain of Proto-oncogene tyrosine-protein kinase receptor Ret (P07949 whole entry): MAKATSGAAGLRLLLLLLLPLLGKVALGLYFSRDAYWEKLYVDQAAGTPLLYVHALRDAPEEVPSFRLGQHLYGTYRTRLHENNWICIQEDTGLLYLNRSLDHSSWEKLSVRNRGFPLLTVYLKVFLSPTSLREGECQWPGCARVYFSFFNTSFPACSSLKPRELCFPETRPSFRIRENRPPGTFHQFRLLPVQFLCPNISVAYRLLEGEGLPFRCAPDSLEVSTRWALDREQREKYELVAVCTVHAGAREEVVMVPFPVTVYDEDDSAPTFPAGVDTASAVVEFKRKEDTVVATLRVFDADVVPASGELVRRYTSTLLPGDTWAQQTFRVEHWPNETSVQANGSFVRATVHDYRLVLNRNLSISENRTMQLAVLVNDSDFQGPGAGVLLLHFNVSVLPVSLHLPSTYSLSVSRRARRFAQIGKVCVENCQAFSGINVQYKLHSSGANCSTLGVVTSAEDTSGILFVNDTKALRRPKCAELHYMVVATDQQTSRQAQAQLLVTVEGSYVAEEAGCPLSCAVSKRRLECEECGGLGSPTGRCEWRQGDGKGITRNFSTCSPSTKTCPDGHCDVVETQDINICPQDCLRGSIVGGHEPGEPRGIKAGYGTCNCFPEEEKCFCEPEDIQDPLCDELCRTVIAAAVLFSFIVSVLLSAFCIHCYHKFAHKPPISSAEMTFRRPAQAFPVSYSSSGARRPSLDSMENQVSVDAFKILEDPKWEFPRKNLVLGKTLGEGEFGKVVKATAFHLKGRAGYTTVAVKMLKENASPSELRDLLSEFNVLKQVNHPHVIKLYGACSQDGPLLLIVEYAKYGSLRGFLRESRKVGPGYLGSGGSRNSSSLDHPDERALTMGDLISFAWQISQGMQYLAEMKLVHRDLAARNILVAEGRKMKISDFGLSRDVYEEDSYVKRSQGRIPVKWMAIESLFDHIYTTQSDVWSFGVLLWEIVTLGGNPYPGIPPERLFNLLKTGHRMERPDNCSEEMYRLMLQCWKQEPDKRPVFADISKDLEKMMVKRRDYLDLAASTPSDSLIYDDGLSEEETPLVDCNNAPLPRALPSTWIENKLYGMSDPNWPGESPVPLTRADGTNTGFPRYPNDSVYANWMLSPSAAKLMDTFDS
Chain of Serine/threonine-protein kinase PRP4 homolog (Homo sapiens) (Q13523 whole entry): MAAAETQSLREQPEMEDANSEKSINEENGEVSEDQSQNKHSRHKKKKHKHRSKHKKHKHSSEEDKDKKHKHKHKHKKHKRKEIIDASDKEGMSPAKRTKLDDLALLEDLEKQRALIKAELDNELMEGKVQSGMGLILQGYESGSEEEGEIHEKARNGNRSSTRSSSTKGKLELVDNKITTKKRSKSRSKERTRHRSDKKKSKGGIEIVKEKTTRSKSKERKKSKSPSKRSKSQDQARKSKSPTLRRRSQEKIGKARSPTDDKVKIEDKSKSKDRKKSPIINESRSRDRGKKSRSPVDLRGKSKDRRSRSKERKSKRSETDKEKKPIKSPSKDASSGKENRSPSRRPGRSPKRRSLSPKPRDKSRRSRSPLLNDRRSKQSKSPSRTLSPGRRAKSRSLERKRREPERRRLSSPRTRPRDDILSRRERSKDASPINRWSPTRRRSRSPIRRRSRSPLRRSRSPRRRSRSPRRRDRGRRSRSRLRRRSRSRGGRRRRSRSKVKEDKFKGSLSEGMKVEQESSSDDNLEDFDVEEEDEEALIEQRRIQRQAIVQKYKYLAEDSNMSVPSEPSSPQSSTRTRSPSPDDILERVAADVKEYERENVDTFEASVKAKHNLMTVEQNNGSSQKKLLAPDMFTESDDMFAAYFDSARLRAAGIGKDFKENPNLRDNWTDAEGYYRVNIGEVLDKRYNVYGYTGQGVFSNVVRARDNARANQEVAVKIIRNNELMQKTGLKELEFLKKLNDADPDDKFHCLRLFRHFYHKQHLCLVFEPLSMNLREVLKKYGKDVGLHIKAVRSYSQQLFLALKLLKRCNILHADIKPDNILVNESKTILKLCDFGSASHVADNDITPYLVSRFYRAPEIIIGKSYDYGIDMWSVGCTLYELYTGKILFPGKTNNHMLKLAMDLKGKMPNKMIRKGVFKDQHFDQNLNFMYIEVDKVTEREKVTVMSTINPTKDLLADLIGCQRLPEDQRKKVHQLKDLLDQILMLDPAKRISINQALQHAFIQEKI

On to `Cc1ccc(-c2ccc3c(ccc4sc5c(c43)NC[C@@H](C)NC5=O)n2)cn1`, for which the % of inhibition in assay [1] came to 46%.

`CN(C)C/C=C/C(=O)Nc1ccc(C(=O)N2CCCC(Nc3ncc(Cl)c(-c4c[nH]c5ccccc45)n3)C2)cc1` (stereo not given) yielded a % of control in assay [2] of 84%.

As to `CCN(CC)CCCCNc1ncc2cc(-c3cc(OC)cc(OC)c3)c(NC(=O)NC(C)(C)C)nc2n1`, in assay [3], the % of control worked out at 100%.

`Nc1cnc(N2CCc3cc(S(=O)(=O)Nc4c(F)cc(Cl)cc4F)cc(N4CCCC4=O)c32)nc1` [TP-020n] had a % of control in assay [4] of 100%.

In turn, `CCC(=O)N1CCN(c2ccc(-n3c(=O)ccc4cnc5ccc(-c6cnc7ccccc7c6)cc5c43)cc2C(F)(F)F)CC1` showed a % of control in assay [5] of 100%.

As for `CN(C)CCOc1ccc(-c2nc(-c3ccncc3)c(-c3ccc4c(c3)CC/C4=N\O)[nH]2)cc1`, the % of control in assay [6] is 8.6%; in assay [7], 72%; in [8] it was 37%; in [9], 1.3%; in assay [10], 11%; in assay [11], 3%. Further, the % of control in assay [12] was 1.6%; in [13] it was 9.1%; in assay [14] it was 10%.

`C=CC(=O)Nc1cc(-n2c(=O)ccc3cnc4ccc(-c5ccc(NS(C)(=O)=O)cc5)cc4c32)ccc1C`: the % of control in assay [15] (at 1 µM) and in assay [15] (at 10 µM) was 100% in each case.

For the compound `Cn1cc(-n2cnc3c(NCc4nc5cc(Cl)c(Cl)cc5[nH]4)nc(N4CCOCC4)nc32)cn1`, in assay [16], the % of control came to 23.3%.

In assay [17], `CNC(=O)Nc1ccc(-c2nc(N3CC4CCC(C3)O4)c3cnn(C4CCC5(CC4)OCCO5)c3n2)cc1` gave a % of control of 100%.

For `N#Cc1cccc(-c2c[nH]c3ncnc(N4CCOCC4)c23)c1`, the % of inhibition in assay [18] is 22%; in assay [19], -17%.

The record behind these values is ChEMBL document CHEMBL5465560, “Selectivity Literature for EUbOPEN Chemogenomic Library” (2024).
